Measurements reported in patent publication US5292733A, “Cephalosporin compounds” (Lucky Limited, priority 1991, dated 1994).
Values after ≈ are worked out from the molar mass of the structure shown.

Key:
Assay in all cases: Antibacterial activity MIC, two-fold agar dilution
Format in all cases: cell-based
[1] = test system: Escherichia coli ATCC 10536; settings: ATCC10536, Muller-Hinton agar, 37° C., 20 hours
Description: (§1) These MIC values were taken by employing a two-fold dilution method: that is, two-fold serial dilutions of each of the test compounds were made and dispersed in a Muller-Hinton agar medium; 2 μl of the standard test strain which had the 10^7 CFU(Colony Forming Unit) per ml was inoculated on the medium; and these were incubated at 37° C. for 20 hours. The results of the MIC tests are shown Table 1.

[2] = test system: Micrococcus luteus ATCC 9341; settings: ATCC9341; Micrococcus luteus ATCC 9341; Muller-Hinton agar, 37° C., 20 hours; read-out: Antibacterial Activity MIC
Description: as §1

[3] = test system: Bacillus megaterium ATCC 9885; settings: Priestia megaterium, ATCC9885; Bacillus megaterium ATCC 9885; Muller-Hinton agar, 37° C., 20 hours; read-out: Antibacterial Activity MIC
Description: as §1

[4] = test system: Staphylococcus aureus ATCC 6538p; settings: ATCC6538P; Staphylococcus aureus ATCC 6538p; Muller-Hinton agar, 37° C., 20 hours; read-out: Antibacterial Activity MIC
Description: as §1

[5] = test system: Escherichia coli ATCC 25922; settings: ATCC25922, Muller-Hinton agar, 37° C., 20 hours
Description: as §1

[6] = test system: Morganella morganii ATCC 8076h; settings: ATCC8076H, Muller-Hinton agar, 37° C., 20 hours
Description: as §1

[7] = test system: Klebsiella pneumoniae ATCC 10031; settings: ATCC10031; Klebsiella pneumoniae ATCC 10031; Muller-Hinton agar, 37° C., 20 hours; read-out: Antibacterial Activity MIC
Description: as §1

[8] = test system: Bacillus cereus ATCC 11778; settings: ATCC11778; Bacillus cereus ATCC 11778; Muller-Hinton agar, 37° C., 20 hours; read-out: Antibacterial Activity MIC
Description: as §1

[9] = test system: Proteus vulgaris ATCC 6059; settings: ATCC6059; Proteus vulgaris ATCC 6059; Muller-Hinton agar, 37° C., 20 hours; read-out: Antibacterial Activity MIC
Description: as §1

[10] = test system: Enterobacter aerogenes ATCC 29751; settings: Klebsiella aerogenes, ATCC29751; Enterobacter aerogenes ATCC 29751; Muller-Hinton agar, 37° C., 20 hours; read-out: Antibacterial Activity MIC
Description: as §1

[11] = test system: Proteus mirabilis ATCC 25933; settings: ATCC25933; Proteus mirabilis ATCC 25933; Muller-Hinton agar, 37° C., 20 hours; read-out: Antibacterial Activity MIC
Description: as §1

[12] = test system: Shigella flexneri ATCC 11836; settings: ATCC11836, Muller-Hinton agar, 37° C., 20 hours
Description: as §1

[13] = test system: Staphylococcus epidermidis ATCC 12228; settings: ATCC12228; Staphylococcus epidermidis ATCC 12228; Muller-Hinton agar, 37° C., 20 hours; read-out: Antibacterial Activity MIC
Description: as §1

[14] = test system: Pseudomonas aeruginosa ATCC 10145; settings: ATCC10145; Pseudomonas aeruginosa ATCC 10145; Muller-Hinton agar, 37° C., 20 hours; read-out: Antibacterial Activity MIC
Description: as §1

[15] = test system: Shigella sonnei ATCC 11060; settings: ATCC11060, Muller-Hinton agar, 37° C., 20 hours
Description: as §1

[16] = test system: Serratia marcescens ATCC 27117; settings: ATCC27117; Serratia marcescens ATCC 27117; Muller-Hinton agar, 37° C., 20 hours; read-out: Antibacterial Activity MIC
Description: as §1

[17] = test system: Pseudomonas aeruginosa ATCC 25619; settings: ATCC25619; Pseudomonas aeruginosa ATCC 25619; Muller-Hinton agar, 37° C., 20 hours; read-out: Antibacterial Activity MIC
Description: as §1

[18] = test system: Citrobacter freundii ATCC 8090; settings: ATCC8090; Citrobacter freundii ATCC 8090; Muller-Hinton agar, 37° C., 20 hours; read-out: Antibacterial Activity MIC
Description: as §1

[19] = test system: Acinetobacter calcoaceticus ATCC 15473; settings: ATCC15473; Acinetobacter calcoaceticus ATCC 15473; Muller-Hinton agar, 37° C., 20 hours; read-out: Antibacterial Activity MIC
Description: as §1

[20] = test system: Streptococcus faecalis ATCC 29212; settings: Enterococcus faecalis, ATCC29212; Streptococcus faecalis ATCC 29212; Muller-Hinton agar, 37° C., 20 hours; read-out: Antibacterial Activity MIC
Description: as §1

[21] = test system: Salmonella typhimurium ATCC 14028; settings: Salmonella enterica; Salmonella typhimurium ATCC 14028; Muller-Hinton agar, 37° C., 20 hours; read-out: Antibacterial Activity MIC
Description: as §1

[22] = test system: Providencia rettgeri ATCC 9250; settings: ATCC9250, Muller-Hinton agar, 37° C., 20 hours
Description: as §1

[23] = test system: Enterobacter cloacae ATCC 27508; settings: ATCC27508; Enterobacter cloacae ATCC 27508; Muller-Hinton agar, 37° C., 20 hours; read-out: Antibacterial Activity MIC
Description: as §1

[24] = test system: Staphylococcus aureus ATCC 10537; settings: ATCC10537; Staphylococcus aureus ATCC 10537; Muller-Hinton agar, 37° C., 20 hours; read-out: Antibacterial Activity MIC
Description: as §1

[25] = test system: Pseudomonas aeruginosa ATCC 27853; settings: ATCC27853; Pseudomonas aeruginosa ATCC 27853; Muller-Hinton agar, 37° C., 20 hours; read-out: Antibacterial Activity MIC
Description: as §1

Structure (SMILES)	MIC [1]	MIC [2]	MIC [3]	MIC [4]	MIC [5]	MIC [6]	MIC [7]	MIC [8]	MIC [9]	MIC [10]	MIC [11]	MIC [12]	MIC [13]	MIC [14]	MIC [15]	MIC [16]	MIC [17]	MIC [18]	MIC [19]	MIC [20]	further results
CO/N=C(\C(=O)N[C@@H]1C(=O)N2C(C(=O)[O-])=C(CSc3cc(N)nc(N)[n+]3C)CS[C@H]12)c1csc(N)n1 [Compound I-7, (6R,7R)-7-[(Z)-2-(2-aminothiazol-4-yl)-2-(methoxyimino)acetamido]-3-(2,6-diamino-3-methylpyrimidinium-4-yl)thiomethyl-3-cephem-4-carboxylate]	0.13 µg/mL (≈ 0.236 µM)	0.063 µg/mL (≈ 0.114 µM)	0.13 µg/mL (≈ 0.236 µM)	2 µg/mL (≈ 3.63 µM)	0.13 µg/mL (≈ 0.236 µM)	0.016 µg/mL (≈ 0.029 µM)	0.016 µg/mL (≈ 0.029 µM)	64 µg/mL (≈ 116 µM)	0.063 µg/mL (≈ 0.114 µM)	0.5 µg/mL (≈ 0.906 µM)	0.031 µg/mL (≈ 0.0562 µM)	0.063 µg/mL (≈ 0.114 µM)	0.5 µg/mL (≈ 0.906 µM)	64 µg/mL (≈ 116 µM)	0.5 µg/mL (≈ 0.906 µM)	0.5 µg/mL (≈ 0.906 µM)	2 µg/mL (≈ 3.63 µM)	0.25 µg/mL (≈ 0.453 µM)	8 µg/mL (≈ 14.5 µM)	> 128 µg/mL	MIC [21]: 1 µg/mL (≈ 1.81 µM); MIC [22]: ≤ 0.008 µg/mL; MIC [23]: 0.016 µg/mL (≈ 0.029 µM); MIC [24]: 1 µg/mL (≈ 1.81 µM); MIC [25]: 32 µg/mL (≈ 58 µM)
CC[n+]1c(SCC2=C(C(=O)[O-])N3C(=O)[C@@H](NC(=O)/C(=N\OC)c4csc(N)n4)[C@H]3SC2)cc(N)nc1N [Compound I-8, (6R,7R)-7-[(Z)-2-(2-aminothiazol-4-yl)-2-(methoxyimino)acetamido]-3-(2,6-diamino-3-ethylpyrimidinium-4-yl)thiomethyl-3-cephem-4-carboxylate]	0.063 µg/mL (≈ 0.111 µM)	0.063 µg/mL (≈ 0.111 µM)	0.13 µg/mL (≈ 0.23 µM)	2 µg/mL (≈ 3.54 µM)	0.063 µg/mL (≈ 0.111 µM)	0.016 µg/mL (≈ 0.0283 µM)	0.016 µg/mL (≈ 0.0283 µM)	64 µg/mL (≈ 113 µM)	0.063 µg/mL (≈ 0.111 µM)	0.5 µg/mL (≈ 0.884 µM)	0.031 µg/mL (≈ 0.0548 µM)	0.063 µg/mL (≈ 0.111 µM)	0.5 µg/mL (≈ 0.884 µM)	32 µg/mL (≈ 56.6 µM)	0.5 µg/mL (≈ 0.884 µM)	0.5 µg/mL (≈ 0.884 µM)	2 µg/mL (≈ 3.54 µM)	0.13 µg/mL (≈ 0.23 µM)	8 µg/mL (≈ 14.1 µM)	> 128 µg/mL	MIC [21]: 0.5 µg/mL (≈ 0.884 µM); MIC [22]: ≤ 0.008 µg/mL; MIC [23]: 0.016 µg/mL (≈ 0.0283 µM); MIC [24]: 1 µg/mL (≈ 1.77 µM); MIC [25]: 16 µg/mL (≈ 28.3 µM)
CCO/N=C(\C(=O)N[C@@H]1C(=O)N2C(C(=O)[O-])=C(CSc3cc(N)[n+](C)c(N)n3)CS[C@H]12)c1nsc(N)n1 [Compound I-10, (6R,7R)-7-[(Z)-2-(5-amino-1,2,4-thiadiazol-3-yl)-2-(ethoxyimino)acetamido]-3-(2,6-diamino-1-methylpyrimidinium-4-yl)thiomethyl-3-cephem-4-carboxylate]	0.13 µg/mL (≈ 0.229 µM)	0.016 µg/mL (≈ 0.0282 µM)	0.13 µg/mL (≈ 0.229 µM)	0.5 µg/mL (≈ 0.882 µM)	0.25 µg/mL (≈ 0.441 µM)	0.016 µg/mL (≈ 0.0282 µM)	≤ 0.008 µg/mL	128 µg/mL (≈ 226 µM)	0.25 µg/mL (≈ 0.441 µM)	0.25 µg/mL (≈ 0.441 µM)	0.25 µg/mL (≈ 0.441 µM)	0.031 µg/mL (≈ 0.0547 µM)	0.25 µg/mL (≈ 0.441 µM)	1 µg/mL (≈ 1.76 µM)	0.25 µg/mL (≈ 0.441 µM)	0.13 µg/mL (≈ 0.229 µM)	0.5 µg/mL (≈ 0.882 µM)	0.13 µg/mL (≈ 0.229 µM)	4 µg/mL (≈ 7.06 µM)	8 µg/mL (≈ 14.1 µM)	MIC [21]: 0.063 µg/mL (≈ 0.111 µM); MIC [22]: ≤ 0.008 µg/mL; MIC [23]: 0.016 µg/mL (≈ 0.0282 µM); MIC [24]: 0.5 µg/mL (≈ 0.882 µM); MIC [25]: 1 µg/mL (≈ 1.76 µM)
